Data published in BindingDB's records for doi:10.1021/jm034188j (Morphochem, 2004).
pIC50: −log10 of the molar value.

Biological target: Methionine aminopeptidase (Staphylococcus aureus (strain MW2), UniProt P0A079)
Assay: MetAP Inhibition Assay
Details: pH 7.5; 22 °C
Method: The MetAP reaction with Co2+ as a cofactor is coupled to a prolyl aminopeptidase (ProAP) using Met-Pro-p-nitroanilide as substrate. MetAP-catalyzed cleavage of the N-terminal methionine produces prolyl-p-nitroanilide, which is rapidly hydrolyzed by ProAP to release a chromogenic product. This allows the MetAP reaction to be continuously monitored at 405 nm on a UVVIS spectrophotometer. The initial rate was calculated from the early part of the reaction progress curve (<5 min). Activity assays were performed in triplicate using eight to 16 concentrations of substrate or inhibitor.

Chain of Methionine aminopeptidase (P0A079 whole entry): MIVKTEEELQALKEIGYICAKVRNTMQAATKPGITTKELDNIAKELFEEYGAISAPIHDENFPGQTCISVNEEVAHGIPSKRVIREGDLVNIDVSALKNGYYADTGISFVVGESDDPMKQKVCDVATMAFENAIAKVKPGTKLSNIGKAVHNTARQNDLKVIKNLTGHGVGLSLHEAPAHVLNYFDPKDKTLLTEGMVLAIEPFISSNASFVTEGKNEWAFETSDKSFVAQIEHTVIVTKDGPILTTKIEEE

SMILES	pIC50
CSCC[C@H](N)C(=O)c1nccs1 [(2S)-2-amino-4-(methylsulfanyl)-1-(1,3-thiazol-2-yl)butan-1-one]	4.72
CSCC[C@H](N)C(=O)c1ccccn1 [(2S)-2-amino-4-(methylsulfanyl)-1-(pyridin-2-yl)butan-1-one]	4.80
